{"source": "paper PMC11449226", "about": "“Characterization of a β-carotene isomerase from the cyanobacterium Cyanobacteria aponinum” (Philosophical Transactions of the Royal Society B: …, 2024)", "target": "T1, CaD27 (Cyanobacterium aponinum, UniProt K9Z764)", "T1 construct": "gene Cyan10605_2981; thioredoxin fusion (pThio-Dan1-CaD27(-cTP)) in E. coli BL21(DE3) with pGro7 chaperones; crude lysate; Pfam PF13225 family", "T1 sequence (K9Z764 1-216)": "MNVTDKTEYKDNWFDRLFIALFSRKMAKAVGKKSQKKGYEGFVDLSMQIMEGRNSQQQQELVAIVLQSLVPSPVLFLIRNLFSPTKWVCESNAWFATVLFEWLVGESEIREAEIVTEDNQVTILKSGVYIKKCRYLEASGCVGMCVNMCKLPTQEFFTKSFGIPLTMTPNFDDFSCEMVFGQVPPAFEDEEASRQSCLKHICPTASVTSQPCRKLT", "assay": "isomerization assay, UHPLC", "assay_type": "biochemical", "conditions": "crude lysate of E. coli expressing thioredoxin-CaD27, compared with thioredoxin control"}
{"compound": "CC1=C(/C=C/C(C)=C/C=C/C(C)=C/C=C/C=C(C)/C=C/C=C(C)/C=C/C2=C(C)CCCC2(C)C)C(C)(C)CCC1", "note": "[all-trans-β-carotene]", "values": [{"measurement": "isomerization assay, UHPLC", "setting": "products 9-cis- and 13-cis-beta-carotene, also tested in beta-carotene-accumulating E. coli", "value": "we only detected the isomerization of all-trans-β-carotene into 9-cis, and 13-cis-β-carotene"}]}
{"compound": "CC1=C(/C=C/C(C)=C/C=C/C(C)=C\\C=C\\C=C(C)\\C=C\\C=C(C)\\C=C\\C2=C(C)CCCC2(C)C)C(C)(C)CCC1", "note": "[13-cis-β-carotene]", "values": [{"measurement": "isomerization assay, UHPLC", "setting": "product 9-cis-beta-carotene", "value": "thioredoxin-CaD27 converted 13-cis-β-carotene into 9-cis-β-carotene"}]}
